According to PubChem BioAssay AID2060497 (Molecular Pharmacology Branch, DTP, NCI, 2025):
pIC50: −log10 of the molar value.

Tested on: 317291-083-R-J1-PDC complex spheroids, viability
Assay: Anticancer human tumor 317291-083-R-J1-PDC patient-derived soft tissue sarcoma cell line growth inhibition [GQUAD]
Settings: for pIC50: curve of first compound; for viability, T/C: stronger effect = lower value
Procedure, shortened: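 Viability of tumor cells grown as complex spheroids with endothelial and stromal cells, exposed to drug combinations. Top concentration at or near clinical Cmax (else 10 microM), diluted in half-log increments.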

[1] = second compound 0.0316 µM, first compound 0.0316 µM
[2] = second compound 0.0316 µM, first compound 0.1 µM
[3] = second compound 0.0316 µM, first compound 0.316 µM
[4] = second compound 0.0316 µM, first compound 1 µM
[5] = second compound 0.0316 µM, first compound 3.16 µM
[6] = second compound 0.0316 µM, first compound 10 µM
[7] = second compound 0.1 µM, first compound 0.0316 µM
[8] = second compound 0.1 µM, first compound 0.1 µM
[9] = second compound 0.1 µM, first compound 0.316 µM
[10] = second compound 0.1 µM, first compound 1 µM
[11] = second compound 0.1 µM, first compound 3.16 µM
[12] = second compound 0.1 µM, first compound 10 µM
[13] = second compound 0.316 µM, first compound 0.0316 µM
[14] = second compound 0.316 µM, first compound 0.1 µM
[15] = second compound 0.316 µM, first compound 0.316 µM
[16] = second compound 0.316 µM, first compound 1 µM
[17] = second compound 0.316 µM, first compound 3.16 µM
[18] = second compound 0.316 µM, first compound 10 µM
[19] = second compound 1 µM, first compound 0.0316 µM
[20] = second compound 1 µM, first compound 0.1 µM
[21] = second compound 1 µM, first compound 0.316 µM
[22] = second compound 1 µM, first compound 1 µM
[23] = second compound 1 µM, first compound 3.16 µM
[24] = second compound 1 µM, first compound 10 µM
[25] = second compound 3.16 µM, first compound 0.0316 µM
[26] = second compound 3.16 µM, first compound 0.1 µM
[27] = second compound 3.16 µM, first compound 0.316 µM
[28] = second compound 3.16 µM, first compound 1 µM
[29] = second compound 3.16 µM, first compound 3.16 µM
[30] = second compound 3.16 µM, first compound 10 µM
[31] = second compound 10 µM, first compound 0.0316 µM
[32] = second compound 10 µM, first compound 0.1 µM
[33] = second compound 10 µM, first compound 0.316 µM
[34] = second compound 10 µM, first compound 1 µM
[35] = second compound 10 µM, first compound 3.16 µM
[36] = second compound 10 µM, first compound 10 µM
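Note: spheroids exposed to compounds for one week before readout.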
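Throughout, for viability, T/C: percent viability relative to DMSO vehicle wells taken as 100%.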

In the case of C=CC(=O)N1CCN(c2nc(=O)n(-c3c(C)ccnc3C(C)C)c3nc(-c4c(O)cccc4F)c(F)cc23)C(C)C1 (stereo unspecified) + CN(C)c1ccc(Nc2c3ccc(NC(=O)CCN4CCCC4)cc3nc3cc(NC(=O)CCN4CCCC4)ccc23)cc1, the pIC50 (second compound 0.0316 µM) was < 5.00, the pIC50 (second compound 0.1 µM) was < 5.00 and the pIC50 (second compound 0.316 µM) was < 5.00. The pIC50 (second compound 1 µM) was 5.85, the pIC50 (second compound 3.16 µM) was > 7.50 and the pIC50 (second compound 10 µM) was > 7.50. For the same compound, the viability, T/C [1] was 105%, the viability, T/C [2] was 90.8% and the viability, T/C [3] was 114%. The viability, T/C [4] was 113%, the viability, T/C [5] was 98.4% and the viability, T/C [6] was 65.2%. It also gave a viability, T/C [7] of 115%, a viability, T/C [8] of 100% and a viability, T/C [9] of 99.1%. The viability, T/C [10] was 107%, the viability, T/C [11] was 91.8% and the viability, T/C [12] was 70.8%. The viability, T/C [13] was 81.5%, the viability, T/C [14] was 69.9% and the viability, T/C [15] was 73.2%. For the same compound, the viability, T/C [16] was 91.2%, the viability, T/C [17] was 82.9% and the viability, T/C [18] was 51.4%. It also gave a viability, T/C [19] of 57%, a viability, T/C [20] of 44.1% and a viability, T/C [21] of 52.3%. For the same compound, the viability, T/C [22] was 81.2%, the viability, T/C [23] was 30.2% and the viability, T/C [24] was 22.5%. It also gave a viability, T/C [25] of 32.1%, a viability, T/C [26] of 22% and a viability, T/C [27] of 29.2%. It also gave a viability, T/C [28] of 51.6%, a viability, T/C [29] of 42.4% and a viability, T/C [30] of 21.1%. The viability, T/C [31] was 13.5%, the viability, T/C [32] was 15.1% and the viability, T/C [33] was 8.38%. For the same compound, the viability, T/C [34] was 8.02%, the viability, T/C [35] was 6.86% and the viability, T/C [36] was 23.1%.
CC[C@@]1(O)C(=O)OCc2c1cc1n(c2=O)Cc2cc3c(CN(C)C)c(O)ccc3nc2-1 + CN(C)c1ccc(Nc2c3ccc(NC(=O)CCN4CCCC4)cc3nc3cc(NC(=O)CCN4CCCC4)ccc23)cc1 gave a pIC50 (second compound 0.0316 µM) of 7.26, a pIC50 (second compound 0.1 µM) of 7.30 and a pIC50 (second compound 0.316 µM) of 7.59. For the same compound, the pIC50 (second compound 1 µM) was > 9.00, the pIC50 (second compound 3.16 µM) was > 9.00 and the pIC50 (second compound 10 µM) was > 9.00. It also gave a viability, T/C (second compound 0.0316 µM, first compound 0.000999 µM) of 99.5%, a viability, T/C (second compound 0.0316 µM, first compound 0.00316 µM) of 98.3% and a viability, T/C (second compound 0.0316 µM, first compound 0.00999 µM) of 109%. For the same compound, the viability, T/C [1] was 70.3%, the viability, T/C (second compound 0.0316 µM, first compound 0.0999 µM) was 29% and the viability, T/C [3] was 16.7%. It also gave a viability, T/C (second compound 0.1 µM, first compound 0.000999 µM) of 95%, a viability, T/C (second compound 0.1 µM, first compound 0.00316 µM) of 85.4% and a viability, T/C (second compound 0.1 µM, first compound 0.00999 µM) of 94%. The viability, T/C [7] was 65.5%, the viability, T/C (second compound 0.1 µM, first compound 0.0999 µM) was 26.9% and the viability, T/C [9] was 15.9%. It also gave a viability, T/C (second compound 0.316 µM, first compound 0.000999 µM) of 79.8%, a viability, T/C (second compound 0.316 µM, first compound 0.00316 µM) of 90.8% and a viability, T/C (second compound 0.316 µM, first compound 0.00999 µM) of 74.7%. For the same compound, the viability, T/C [13] was 42.6%, the viability, T/C (second compound 0.316 µM, first compound 0.0999 µM) was 28.9% and the viability, T/C [15] was 14.9%. It also gave a viability, T/C (second compound 1 µM, first compound 0.000999 µM) of 49%, a viability, T/C (second compound 1 µM, first compound 0.00316 µM) of 42.6% and a viability, T/C (second compound 1 µM, first compound 0.00999 µM) of 48.5%. It also gave a viability, T/C [19] of 36.7%, a viability, T/C (second compound 1 µM, first compound 0.0999 µM) of 18.1% and a viability, T/C [21] of 9.13%. It also gave a viability, T/C (second compound 3.16 µM, first compound 0.000999 µM) of 28.4%, a viability, T/C (second compound 3.16 µM, first compound 0.00316 µM) of 24.1% and a viability, T/C (second compound 3.16 µM, first compound 0.00999 µM) of 22.8%. The viability, T/C [25] was 15.4%, the viability, T/C (second compound 3.16 µM, first compound 0.0999 µM) was 11.5% and the viability, T/C [27] was 9.22%. For the same compound, the viability, T/C (second compound 10 µM, first compound 0.000999 µM) was 9.99%, the viability, T/C (second compound 10 µM, first compound 0.00316 µM) was 16.1% and the viability, T/C (second compound 10 µM, first compound 0.00999 µM) was 5.13%. It also gave a viability, T/C [31] of 5.79%, a viability, T/C (second compound 10 µM, first compound 0.0999 µM) of 8.35% and a viability, T/C [33] of 4.27%.
For COc1cc(C2c3cc4c(cc3C(OC3OC5COC(C)OC5C(O)C3O)C3COC(=O)C23)OCO4)cc(OC)c1O (stereo unspecified) + CN(C)c1ccc(Nc2c3ccc(NC(=O)CCN4CCCC4)cc3nc3cc(NC(=O)CCN4CCCC4)ccc23)cc1, the pIC50 (second compound 0.0316 µM) was 6.51, the pIC50 (second compound 0.1 µM) was 6.45 and the pIC50 (second compound 0.316 µM) was 6.55. For the same compound, the pIC50 (second compound 1 µM) was 7.26, the pIC50 (second compound 3.16 µM) was > 7.50 and the pIC50 (second compound 10 µM) was > 7.50. It also gave a viability, T/C [1] of 89.9%, a viability, T/C [2] of 82.2% and a viability, T/C [3] of 48.9%. For the same compound, the viability, T/C [4] was 26.8%, the viability, T/C [5] was 19.4% and the viability, T/C [6] was 21.7%. For the same compound, the viability, T/C [7] was 92.1%, the viability, T/C [8] was 86% and the viability, T/C [9] was 50.4%. The viability, T/C [10] was 29.6%, the viability, T/C [11] was 15.7% and the viability, T/C [12] was 18.1%. It also gave a viability, T/C [13] of 79.8%, a viability, T/C [14] of 71.9% and a viability, T/C [15] of 46.8%. The viability, T/C [16] was 26.1%, the viability, T/C [17] was 20.1% and the viability, T/C [18] was 12.3%. The viability, T/C [19] was 62.1%, the viability, T/C [20] was 37.9% and the viability, T/C [21] was 20.7%. It also gave a viability, T/C [22] of 15.7%, a viability, T/C [23] of 13.5% and a viability, T/C [24] of 7.56%. For the same compound, the viability, T/C [25] was 39%, the viability, T/C [26] was 12.5% and the viability, T/C [27] was 21.5%. The viability, T/C [28] was 9.89%, the viability, T/C [29] was 8.39% and the viability, T/C [30] was 6.12%. It also gave a viability, T/C [31] of 12.7%, a viability, T/C [32] of 8.34% and a viability, T/C [33] of 4.76%. For the same compound, the viability, T/C [34] was 7.68%, the viability, T/C [35] was 5.05% and the viability, T/C [36] was 0.99%.
